The source of these data is patent US20090018120A1, “AMIDINE DERIVATIVES AND THEIR APPLICATIONS AS A MEDICAMENT” (priority 2005, published 2009).

Values joined by “and” are separate entries in the source; they are usually repeats but may differ in a detail not shown here. Equal values may be shown once. Read-outs that look alike come from different tables or passages of the source.

The subject of data set [1] is calpain. The data set can be described thus: Effect in situ on the calpain enzymatic activity of human skeletal cells (SKM), maitotoxin-activated, Suc-Leu-Tyr-AMC substrate. Particulars: read-out: IC50 (concentration which inhibits 50% of the enzyme activity), SKM myotubes, 3 h at 30° C. The class given is cell-based. The protocol:
Effect In Situ of the Compounds According to the Invention on the Calpain Enzymatic Activity of Human Skeletal Cells (SKM)
The principle of the test is the following: maitotoxin is a toxin which causes the opening of the calcium channels of cells. The resulting intra-cellular flow of calcium is at the origin of the death of the cell. During this process of cell death, a cysteine-dependent protease, calpain, is activated. The test consists of incubating the cells in the presence of maitotoxin, in order to activate the calpain enzyme, and adding a calpain substrate which fluoresces when the enzyme cleaves this substrate. Finally, calpain inhibitors are tested.
The myoblasts are seeded at 2500 cells per well in 96-well plates in a DMEM 10% FCS (foetal calf serum) culture medium supplemented with amphotericin B, human recombinant epidermal growth factor and dexamethasone. Three days after seeding, the cells have adhered to the bottom of the well, the differentiation of the cells to myotubes is induced by adding 100 μl of DMEM F12 medium containing 2% horse serum. […] The background noise is determined by preparing additional control wells without MTX. […] The plates are stirred, the fluorescence is read at 380/460 nm using a so-called Victor device at time zero. […]
The fluorescence values make it possible to calculate a concentration-effect for each of the compounds. […]

Data set [2] deals with neuromast ciliated cells of Zebrafish. The data set can be described thus: Ototoxicity induced by gentamycin in Zebrafish: protection of neuromast ciliated cells (DASPEI staining). The data set is classed as in vivo. To be noted: for EC50: Danio rerio, 0, 25, 50, 100 μM, co-treatment with gentamycin 1 μg/ml, concentration which allows 50% of stained cells to be visualized, read-out: EC50 μM (survival of the ciliated cells in % of the control); for control % (% staining signal of the ciliated cells): positive control = 100%. The text has this:
Ototoxicity Induced after a Treatment with Gentamycin: Protective Effect of the Compounds According to the Invention
Principle of the test: gentamycin and other aminoglycosides cause damage to ciliated cells and a hearing loss in humans. Zebrafish have sensory organs known as neuromasts on the surface of their body. These neuromast ciliated cells are structurally and functionally similar to the internal ciliated cells of the human ear. In these fish, the neuromast ciliated cells can be stained with DASPEI (2,4-dimethyl-aminostyryl-N-ethyl pyridinium iodide) and this staining reflects the number of functional ciliated cells.
Damage to the internal ciliated cells is induced in the Zebrafish with a gentamycin treatment. In order to test the protective effect of the compound to be tested on ciliated cells damaged by gentamycin, the compound was administered as a co-treatment with gentamycin. The internal ciliated cells are then stained and quantified.
The study is carried out on 5-day old fish, incubated with 1 μg/ml of gentamycin for 24 hours in the presence or the absence of the compound. Controls are carried out in parallel; vehicle alone (1% DMSO; positive control). Fish treated with gentamycin only are the negative controls.
The EC50 (concentration of the substance to be tested which protects 50% of the cells from cell death) is calculated from this concentration-effect.
The DASPEI staining is carried out to visualize the ciliated cells in vivo (n=6 per group). Morphometric analysis is used to quantify the staining signal of the ciliated cells. The DASPEI staining signal of the positive controls was defined as 100%.
Positive control (Zebrafish-1% DMSO); Negative control (Zebrafish-1% DMSO-gentamycin 1 μg/ml) and effect of the products (Zebrafish-1% DMSO-gentamycin-compound). Experiment carried out on 6 animals per group.

The subject of data set [3] is human skeletal cells (SKM). As to the kind of experiment: Protective effect on cell death induced by maitotoxin on human skeletal cells (SKM), WST-1. The class given is cell-based. To be noted: read-out: EC50 (concentration which protects 50% of the cells from cell death). The text has this:
Protective Effect of the Compounds According to the Invention on Cell Death Induced by Maitotoxin on Human Skeletal Cells (SKM)
The principle of the test is the following: maitotoxin is a toxin which causes the opening of the calcium channels of cells. The resulting intra-cellular flow of calcium is at the origin of the death of the cell. During this process of cell death, a cysteine-dependent protease, calpain, is activated, and an abundance of free radicals is produced. The test consists of incubating the cells in the presence of the molecules to be tested, in order to delay or inactivate cell death and thus determine the protective effect.
The myoblasts are seeded at 2500 cells per well in 96-well plates in a DMEM 10% FCS (foetal calf serum) culture medium supplemented with amphotericin B, human recombinant epidermal growth factor and dexamethasone. […]
After an incubation time of 3 h or 96 h, the culture medium is replaced by a DMEM 10% FCS medium supplemented by 10% WST-1, WST-1 (Roche, reference 1644807) is a reagent which stains metabolically active cells, i.e. live cells. […] Then the number of live cells is determined using a Perkin-Elmer Wallac Envision 2101 device by reading the absorbance at 450 nm. The concentration-effect of the products on the cell survival fraction is then calculated. […]

Where [4] appears, read: compound 50 μM as co-treatment with gentamycin 1 μg/ml.

Consider `CC(C)C[C@H](NC(=N)c1ccc2c(c1)Nc1ccccc1S2)C(=O)N[C@H]1CCOC1O.I` (stereo partly drawn) [Example 5, N^1-[(3S)-2-hydroxytetrahydrofuran-3-yl]-N^2-[imino(10H-phenothiazin-2-yl)methyl]-L-leucinamide hydroiodide], for which the IC50 in data set [1] is below 20 µM. The EC50 in data set [2] came to 32 µM. For the same molecule, in data set [2] (setting [4]), the “protection of the ciliated cells damaged by the gentamycin treatment” value came to 40%. Also, the “control % (% staining signal of the ciliated cells)” value (“control %” for short) in data set [2] (compound 50 μM as co-treatment with gentamycin 1 μg/ml, 24 hours, 5-day old fish, hydroiodide) was 52% and 52 ± 10%.

As to `C[C@H]1C[C@@H]2[C@H]([C@@H](O)C[C@@]3(C)[C@H]2CC[C@]3(O)C(=O)CO)[C@@]2(C)C=CC(=O)C=C12` [a-methylprednisolone], the figures for the EC50 in data set [3] (after incubation for 3 hours in the presence of maitotoxin) and in data set [3] (after incubation for 96 hours in the presence of maitotoxin) were 354 µM and 196 µM, respectively.

For the molecule `CC(=O)OC1OCC[C@@H]1NC(=O)[C@H](CC(C)C)NC(=N)c1ccc2c(c1)Nc1ccccc1S2.I` (stereo partly drawn) [Example 4, (3S)-3-({N-[imino(10H-phenothiazin-2-yl)methyl]-L-leucyl}amino)tetrahydrofuran-2-yl acetate hydroiodide], in data set [2], the EC50 stood at 51 µM. In data set [2] (setting [4]), the “protection of the ciliated cells damaged by the gentamycin treatment” value came to 36.2%. Besides, the “control %” value in data set [2] (compound 50 μM as co-treatment with gentamycin 1 μg/ml, 24 hours, 5-day old fish, acetate hydroiodide) is 49% and 49 ± 5%.

With Gentamycin [reference compound], the “loss of the ciliated cells following treatment with gentamycin” value in data set [2] (gentamycin 1 μg/ml alone, 24 hours) was found to be 80%. For the same molecule, the “control %” value in data set [2] (gentamycin 1 μg/ml alone, 24 hours (negative control)) is recorded as 20 ± 0.6%; in data set [2] (gentamycin 1 μg/ml alone, 24 hours (negative control), listed as gentamycin), 20%.
